According to the NIST ThermoML archive (doi:10.1016/j.jct.2016.08.005):

Conditions: Liquid, Vibrating tube method

Cc1ccsc1 [3-methylthiophene]
Conditions	mass density [kg/m3]
283.15 K, 100 kPa	1031.82
283.15 K, 2000 kPa	1033.26
283.15 K, 5000 kPa	1035.47
283.15 K, 7000 kPa	1036.93
283.15 K, 10000 kPa	1039.07
283.15 K, 15000 kPa	1042.56
283.15 K, 20000 kPa	1045.93
283.15 K, 25000 kPa	1049.2
283.15 K, 30000 kPa	1052.37
283.15 K, 35000 kPa	1055.46
283.15 K, 40000 kPa	1058.46
283.15 K, 45000 kPa	1061.37
283.15 K, 50000 kPa	1064.22
283.15 K, 55000 kPa	1066.97
283.15 K, 60000 kPa	1069.67
283.15 K, 65000 kPa	1072.32
288.15 K, 100 kPa	1026.57
288.15 K, 2000 kPa	1028.05
288.15 K, 5000 kPa	1030.34
288.15 K, 7000 kPa	1031.84
288.15 K, 10000 kPa	1034.03
288.15 K, 15000 kPa	1037.61
288.15 K, 20000 kPa	1041.07
288.15 K, 25000 kPa	1044.41
288.15 K, 30000 kPa	1047.65
288.15 K, 35000 kPa	1050.8
288.15 K, 40000 kPa	1053.86
288.15 K, 45000 kPa	1056.84
288.15 K, 50000 kPa	1059.74
288.15 K, 55000 kPa	1062.56
288.15 K, 60000 kPa	1065.32
288.15 K, 65000 kPa	1068.01
293.15 K, 100 kPa	1021.31
293.15 K, 2000 kPa	1022.81
293.15 K, 5000 kPa	1025.16
293.15 K, 7000 kPa	1026.7
293.15 K, 10000 kPa	1028.95
293.15 K, 15000 kPa	1032.61
293.15 K, 20000 kPa	1036.16
293.15 K, 25000 kPa	1039.6
293.15 K, 30000 kPa	1042.92
293.15 K, 35000 kPa	1046.15
293.15 K, 40000 kPa	1049.27
293.15 K, 45000 kPa	1052.31
293.15 K, 50000 kPa	1055.28
293.15 K, 55000 kPa	1058.15
293.15 K, 60000 kPa	1060.96
293.15 K, 65000 kPa	1063.7
298.15 K, 100 kPa	1016
298.15 K, 2000 kPa	1017.57
298.15 K, 5000 kPa	1019.98
298.15 K, 7000 kPa	1021.56
298.15 K, 10000 kPa	1023.89
298.15 K, 15000 kPa	1027.64
298.15 K, 20000 kPa	1031.29
298.15 K, 25000 kPa	1034.81
298.15 K, 30000 kPa	1038.2
298.15 K, 35000 kPa	1041.52
298.15 K, 40000 kPa	1044.71
298.15 K, 45000 kPa	1047.82
298.15 K, 50000 kPa	1050.84
298.15 K, 55000 kPa	1053.78
298.15 K, 60000 kPa	1056.65
298.15 K, 65000 kPa	1059.43
303.15 K, 100 kPa	1010.72
303.15 K, 2000 kPa	1012.32
303.15 K, 5000 kPa	1014.81
303.15 K, 7000 kPa	1016.43
303.15 K, 10000 kPa	1018.83
303.15 K, 15000 kPa	1022.7
303.15 K, 20000 kPa	1026.42
303.15 K, 25000 kPa	1030.01
303.15 K, 30000 kPa	1033.5
303.15 K, 35000 kPa	1036.87
303.15 K, 40000 kPa	1040.16
303.15 K, 45000 kPa	1043.34
303.15 K, 50000 kPa	1046.42
303.15 K, 55000 kPa	1049.41
303.15 K, 60000 kPa	1052.33
303.15 K, 65000 kPa	1055.16
308.15 K, 100 kPa	1005.4
308.15 K, 2000 kPa	1007.04
308.15 K, 5000 kPa	1009.61
308.15 K, 7000 kPa	1011.27
308.15 K, 10000 kPa	1013.72
308.15 K, 15000 kPa	1017.69
308.15 K, 20000 kPa	1021.53
308.15 K, 25000 kPa	1025.22
308.15 K, 30000 kPa	1028.73
308.15 K, 35000 kPa	1032.24
308.15 K, 40000 kPa	1035.59
308.15 K, 45000 kPa	1038.84
308.15 K, 50000 kPa	1041.98
308.15 K, 55000 kPa	1045.05
308.15 K, 60000 kPa	1048.03
308.15 K, 65000 kPa	1050.91
313.15 K, 100 kPa	1000.05
313.15 K, 2000 kPa	1001.76
313.15 K, 5000 kPa	1004.39
313.15 K, 7000 kPa	1006.11
313.15 K, 10000 kPa	1008.64
313.15 K, 15000 kPa	1012.71
313.15 K, 20000 kPa	1016.63
313.15 K, 25000 kPa	1020.43
313.15 K, 30000 kPa	1024.08
313.15 K, 35000 kPa	1027.61
313.15 K, 40000 kPa	1031.05
313.15 K, 45000 kPa	1034.35
313.15 K, 50000 kPa	1037.58
313.15 K, 55000 kPa	1040.71
313.15 K, 60000 kPa	1043.73
313.15 K, 65000 kPa	1046.69
318.15 K, 100 kPa	994.7
318.15 K, 2000 kPa	996.44
318.15 K, 5000 kPa	999.15
318.15 K, 7000 kPa	1000.93
318.15 K, 10000 kPa	1003.52
318.15 K, 15000 kPa	1007.7
318.15 K, 20000 kPa	1011.74
318.15 K, 25000 kPa	1015.6
318.15 K, 30000 kPa	1019.35
318.15 K, 35000 kPa	1022.99
318.15 K, 40000 kPa	1026.48
318.15 K, 45000 kPa	1029.86
318.15 K, 50000 kPa	1033.15
318.15 K, 55000 kPa	1036.33
318.15 K, 60000 kPa	1039.44
318.15 K, 65000 kPa	1042.45
323.15 K, 100 kPa	989.3
323.15 K, 2000 kPa	991.1
323.15 K, 5000 kPa	993.9
323.15 K, 7000 kPa	995.72
323.15 K, 10000 kPa	998.41
323.15 K, 15000 kPa	1002.71
323.15 K, 20000 kPa	1006.85
323.15 K, 25000 kPa	1010.83
323.15 K, 30000 kPa	1014.66
323.15 K, 35000 kPa	1018.35
323.15 K, 40000 kPa	1021.93
323.15 K, 45000 kPa	1025.4
323.15 K, 50000 kPa	1028.76
323.15 K, 55000 kPa	1032.03
323.15 K, 60000 kPa	1035.18
323.15 K, 65000 kPa	1038.24
328.15 K, 100 kPa	983.88
328.15 K, 2000 kPa	985.74
328.15 K, 5000 kPa	988.63
328.15 K, 7000 kPa	990.51
328.15 K, 10000 kPa	993.26
328.15 K, 15000 kPa	997.7
328.15 K, 20000 kPa	1001.93
328.15 K, 25000 kPa	1006
328.15 K, 30000 kPa	1009.94
328.15 K, 35000 kPa	1013.73
328.15 K, 40000 kPa	1017.38
328.15 K, 45000 kPa	1020.94
328.15 K, 50000 kPa	1024.36
328.15 K, 55000 kPa	1027.68
328.15 K, 60000 kPa	1030.89
328.15 K, 65000 kPa	1034.03
333.15 K, 100 kPa	978.47
333.15 K, 2000 kPa	980.39
333.15 K, 5000 kPa	983.35
333.15 K, 7000 kPa	985.3
333.15 K, 10000 kPa	988.13
333.15 K, 15000 kPa	992.67
333.15 K, 20000 kPa	997.03
333.15 K, 25000 kPa	1001.22
333.15 K, 30000 kPa	1005.22
333.15 K, 35000 kPa	1009.12
333.15 K, 40000 kPa	1012.87
333.15 K, 45000 kPa	1016.49
333.15 K, 50000 kPa	1020
333.15 K, 55000 kPa	1023.38
333.15 K, 60000 kPa	1026.67
333.15 K, 65000 kPa	1029.88
338.15 K, 100 kPa	972.98
338.15 K, 2000 kPa	974.96
338.15 K, 5000 kPa	978.01
338.15 K, 7000 kPa	980.02
338.15 K, 10000 kPa	982.95
338.15 K, 15000 kPa	987.63
338.15 K, 20000 kPa	992.12
338.15 K, 25000 kPa	996.41
338.15 K, 30000 kPa	1000.53
338.15 K, 35000 kPa	1004.49
338.15 K, 40000 kPa	1008.33
338.15 K, 45000 kPa	1012.04
338.15 K, 50000 kPa	1015.62
338.15 K, 55000 kPa	1019.08
338.15 K, 60000 kPa	1022.44
338.15 K, 65000 kPa	1025.7
